Patent US20230374462A1, “METHOD FOR PRODUCING MYOCARDIAL STEM/PROGENITOR CELL AND METHOD FOR SUPPRESSING MYOCARDIAL FIBROSIS” (priority 2020, published 2023)

Assays:
[1] = test system: primary human cardiomyocytes (HCM); test: Long-term culture with low-speed imaging of cardiomyocytes in presence of low molecular weight compound; assay type: cell-based; settings: for long-term culture (proliferation): HCM, FIG. 1B; for cell morphology of cardiomyocytes: long-term culture, FIG. 1A
Description: (§1) The subcultured human cardiomyocytes were seeded at 0.5×10^2 cells/cm^2 on a 35 mm plate (IWAKI) containing: 3 mL of a Vascular Smooth Muscle Cell growth medium containing 3-(6-methyl-2-pyridinyl)-n-phenyl-4-(4-quinolinyl)-1H-pyrazole-1-carbothioamide (A-83-01: A) (final concentration: 1 AM) as a low molecular weight compound TGFβ receptor inhibitor or (1R,4r)-4-((R)-1-aminoethyl)-N-(pyridin-4-yl)cyclohexanecarboxamide (Y-27632: Y) (final concentration: 10 AM) as a ROCK inhibitor, both of the compounds A-83-01 and Y-27632, or free of them: or a Myocyte basal medium. On Day 3, the Vascular Smooth Muscle Cell growth medium containing each low molecular weight compound or the Myocyte basal medium was replaced. Thereafter, the medium was replaced in the same manner every three days.
After the medium replacement, low-speed imaging was performed using a BZ9000 all-in-one fluorescence microscope (KEYENCE). In addition, the individual cells were tracked throughout the imaging period (110 days), and the final number of cells derived from each cell was measured.

HCM cells [2] = test: Quantitative RT-PCR of progenitor, maturation and senescence markers; assay type: cell-based, human; settings: for number of cell death due to the treatment: concluded from senescence markers
Description: as §1
(§2) Total RNA was isolated from each cardiomyocyte 1 month and 2 months after culture in the presence of the test low molecular weight compound using miRNeasy Mini Kit (QIAGEN). Reverse transcription reactions were performed using High-Capacity cDNA Reverse Transcription Kit Lifetechnologies according to manufacturer's guidelines. PCR was performed using the obtained cDNA as a template and a Taqman Probe (ThermoFisher). An expression level of a target gene was standardized with β-actin as an endogenous control.

PC-100-021 cells [3] = test: as above; assay type: cell-based, human; settings: for number of cell death due to the treatment: concluded from senescence markers
Description: as §1, §2

HCM cells [4] = test: Western blot of endothelial cell marker (CD31) and muscle cell marker (Troponin T); assay type: cell-based, human; settings: FIG. 3B
Text: (§3) FIG. 3 A: Graphs showing mRNA expression of the myocardial progenitor cell markers (GATA4 and VCAM-1), the maturation marker (MYL2), and senescence markers (CDKN1A and CDKN2A) for cardiomyocytes, in the cardiomyocytes treated with the TGFβ receptor inhibitor (A) or the ROCK inhibitor (Y). In each graph, the vertical axis represents the expression amount (Relative mRNA expression) of each mRNA when the expression amount of the cells before culture is 1, and the numerical values on the horizontal axis represent culture periods (day). B: Photographs showing the results of confirming, by Western blot, loss of the expression of an endothelial cell marker (CD31), and expression of a muscle cell marker (Troponin T) and Actin, in primary human cardiomyocytes (HCM) or primary human coronary artery smooth muscle cells (PC-100-021) treated with the TGFβ receptor inhibitor (A) or the ROCK inhibitor (Y). NT indicates an agent-untreated control, and HUVEC indicates a result of using human umbilical vein endothelial cells (CD31-positive as the endothelial cell marker).

PC-100-021 cells [5] = test: as above; assay type: cell-based, human; settings: FIG. 3B
Text: as §3

[6] = test system: primary human coronary artery smooth muscle cells (PC-100-021); test: Long-term culture with low-speed imaging in presence of low molecular weight compound; assay type: cell-based; settings: FIG. 1C
[7] = 1 and 2 months culture, vs agent untreated group, FIG. 2
[8] = culture periods in days, FIG. 3A

Compound	long-term culture (proliferation) [1]	cell morphology of cardiomyocytes [1]	decrease in progenitor cell markers (GATA4 and VCAM-1) mRNA during culture (HCM cells [2]; [7])	increase in maturation marker (MYL2) mRNA during culture (HCM cells [2]; [7])	expression of senescence markers (CDKN1A and CDKN2A) mRNA (HCM cells [2]; FIG. 3A)	number of cell death due to the treatment (HCM cells [2])	decrease in progenitor cell markers (GATA4 and VCAM-1) mRNA during culture (HCM cells [2]; [8])	increase in maturation marker (MYL2) mRNA during culture (HCM cells [2]; [8])	decrease in progenitor cell markers (GATA4 and VCAM-1) mRNA during culture (PC-100-021 cells [3]; [7])	increase in maturation marker (MYL2) mRNA during culture (PC-100-021 cells [3]; [7])	expression of senescence markers (CDKN1A and CDKN2A) mRNA (PC-100-021 cells [3]; FIG. 3A)	number of cell death due to the treatment (PC-100-021 cells [3])	decrease in progenitor cell markers (GATA4 and VCAM-1) mRNA during culture (PC-100-021 cells [3]; [8])	increase in maturation marker (MYL2) mRNA during culture (PC-100-021 cells [3]; [8])	expression of endothelial cell marker (CD31) (HCM cells [4])	expression of muscle cell marker (HCM cells [4])	expression of endothelial cell marker (CD31) (PC-100-021 cells [5])	expression of muscle cell marker (PC-100-021 cells [5])	long-term culture (proliferation) [6]
C[C@@H](N)[C@H]1CC[C@H](C(=O)Nc2ccncc2)CC1 [Y-27632, (1R,4r)-4-((R)-1-aminoethyl)-N-(pyridin-4-yl)cyclohexanecarboxamide]	long-term culture was induced	maintained the original cell morphology	suppressed	suppressed	hardly expressed	small	suppressed	suppressed	suppressed	suppressed	hardly expressed	small	suppressed	suppressed	not expressed	expressed	not expressed	expressed	
Cc1cccc(-c2nn(C(=S)Nc3ccccc3)cc2-c2ccnc3ccccc23)n1 [A-83-01, 3-(6-methyl-2-pyridinyl)-n-phenyl-4-(4-quinolinyl)-1H-pyrazole-1-carbothioamide]	long-term culture was induced	maintained the original cell morphology	promoted	promoted	hardly expressed	small		promote	promoted	promoted	hardly expressed	small		promote	not expressed	expressed	not expressed	expressed	long-term culture was induced
